# Results from patent US20110003760A1, “ABNORMAL PROTEIN REMOVING METHOD” (priority 2005, published 2011).
# Key:
# [1] = tested on: trypsin-like proteasome activity in three-dimensional human skin model; assay: Proteasome activity in three-dimensional human skin model; type: cell-based; details: for proteasome activity compared to the sample not given any treatment: without UV irradiation
# Protocol: (§1) Three-dimensional human skin models are widely used in safety evaluation and effectiveness evaluation as a simulated model of human skin. In this test, TESTSKIN (LSE-high) (Toyobo Co., Ltd.) was used as a three-dimensional human skin model.
# (§2) A culture medium was added to the outer well of TESTSKIN (LSE-high) and cultured for 24 hours. UVA and UVB were irradiated at 10 J/cm^2 and 100 mJ/cm^2, respectively. UVB was irradiated for 2 minutes at a UV intensity of […] using FL20S-E-30/DMR (Clinical Supply Co., Ltd.) to achieve a total irradiation dose of 100 mJ/cm^2. UV intensity was measured using a UV MONITOR MS-211-I (Eiko Instruments Co., Ltd.).
# (§3) Thereafter, the culture solution was changed and each agent was added by 100 μl onto the tissues in the assay ring, after which the medium was cultured for 36 hours. Thereafter, the tissues were collected and a tissue extraction solution (50 mM Tris-HCl (pH 7.5), 0.5% (Octylphenoxy) polyethoxyethanol (Sigma-Aldrich Corp.)) was added, and then the mixture was homogenized using a Teflon (registered trademark) homogenizer. The homogenized mixture was centrifuged for 30 minutes at 10,000×G to remove tissue fragments, and then dialyzed overnight in distilled water at 4° C. Thereafter, the dialyzed mixture was freeze-dried to remove water. A tissue extraction solution was added to obtain a ×20 concentrate, and this concentrate was used as a three-dimensional skin model extract sample.
# Proteasome activity was measured using a known method (Hayashi, et al., Mechanisms of Aging and Development, Vol. 102, pp. 55-66, 1998) based on cell extract samples.
# The specific method is as follows. For the matrix to measure trypsin-like proteasome activity, t-butyloxycarbonyl-L-leucyl-L-arginyl-L-arginyl-L-4-methyl-coumaryl-7-amide (Peptide Institute, Inc.) was used. A cell extract sample containing protein by an equivalent of 10 μg was added to 10.5 μl of a 100 μM matrix solution prepared with 100 mM Tris-HCl (pH 8.0), after which a cell extraction solution was added to a total volume of 50 μl. The obtained solution was treated for 30 minutes at 37° C., after which the fluorescence intensity of the separated 7-amine-4-methyl coumarin was measured at an excitation wavelength (Ex) of 380 nm and absorption waveform (Em) of 440 nm. The result was obtained for each sample type treated with each agent, as an “average ±standard error” calculated from the measured values of three samples.
# Based on the above results, it is clear that Bletilla striata extract and silybin promote proteasome activity in a three-dimensional skin model in a manner dependent on the concentration. Accordingly, whether or not a combined use of Bletilla striata extract and silybin would synergistically promote proteasome activity was evaluated. Also, whether or not a combined use of silybin and soybean saponin, a substance known to have an action to promote proteasome activity, would synergistically promote proteasome activity was evaluated. As a result, regardless of whether or not UV light was irradiated, using silybin (3 μM) in combination with Bletilla striata extract (0.1%; final extract concentration of 0.001%), or using silybin (3 μM) in combination with soybean saponin (0.0005%), promoted proteasome activity synergistically compared to when a sample was treated with silybin (3 μM), Bletilla striata extract (0.1%; final extract concentration of 0.001%) or soybean saponin (0.0005%) alone, as far as promotion of proteasome activity in a three-dimensional skin model was concerned (FIG. 12).
# [2] = tested on: three-dimensional human skin model; assay: Cell toxicity at treatment concentrations in three-dimensional human skin model; details: at 3 and 10 μM
# [3] = tested on: carbonylated protein in three-dimensional human skin model TESTSKIN (LSE-high); assay: Carbonylated protein in three-dimensional human skin model, Western blotting (DNPH); type: cell-based; details: for Relative photographic density (carbonylated protein): untreated without UV = 100%
# Protocol: as §1, §2
# As a control group, three-dimensional human skin models not irradiated with UVA or UVB were also prepared.
# as §3
# In this test, 2,4-dinitrophenyl hydrazine (DNPH), which specifically bonds with the carbonyl group in the protein produced by oxidation damage, was used to label carbonylated protein, and then detection was performed using an anti-DNPH antibody that specifically bonds with DNPH.
# The specific method is explained below. DNPH protein was detected from the protein in the sample by means of Western blotting using a DNPH kit (Oxi Blot™ Protein Oxidation Detection Kit; Chemicon International Inc.). Detection was performed by exposing PVDF membranes to light using a […] (ECL PLUS; Amarsham PLC), and an automatic developer (FPM100; FUJIFILM Medical Co., Ltd.) was used to transfer images. A densitometer (Molecular Dynamics Inc.) was then used to analyze the images to quantify the photographic density. For your information, protein in the sample was reduced and measured as deemed appropriate. In this case, 2-mercaptoethanol was used as a reducing agent and the mixture was heated for 5 minutes at 100° C. to sever the disulfide bond.
# Based on the above results, it is clear that Bletilla striata extract and silybin suppress accumulation of carbonylated protein in a three-dimensional skin model in a manner dependent on the concentration. Accordingly, whether or not a combined use of Bletilla striata extract and silybin would synergistically suppress accumulation of carbonylated protein was evaluated. Also, whether or not a combined use of silybin and soybean saponin, a substance known to have an action to suppress accumulation of carbonylated protein, would synergistically suppress accumulation of carbonylated protein was evaluated. As a result, regardless of whether or not UV light was irradiated using silybin (3 μM) in combination with Bletilla striata extract (0.1%; final extract concentration of 0.001%), or using silybin (3 μM) in combination with soybean saponin (0.0005%), suppressed the accumulation of carbonylated protein synergistically compared to when a sample was treated with silybin (3 μM), Bletilla striata extract (0.1%; final extract concentration of 0.001%) or soybean saponin (0.0005%) alone, as far as accumulation of carbonylated protein in a three-dimensional skin model was concerned (FIG. 7 and Table 7; results of non-reduced protein).
# [4] = FIG. 11, 3 μM, under UV irradiation
# [5] = FIG. 11, 10 μM, under UV irradiation
# [6] = FIG. 12, under UV irradiation, silybin 3 μM, Bletilla striata extract 0.1%, soybean saponin 0.0005%, alone or combined
compound,measurement,setting,value
"COc1cc(C2Oc3cc([C@H]4Oc5cc(O)cc(O)c5C(=O)[C@@H]4O)ccc3OC2CO)ccc1O (some centres unmarked) [Silybin, silybin]",proteasome activity compared to the sample not given any treatment under UV irradiation (75%),[1]; [4],140%
same,relative proteasome activity level,[1]; [4],105%
same,proteasome activity compared to the sample not given any treatment,"[1]; FIG. 11, 3 μM",145%
same,proteasome activity compared to the sample not given any treatment under UV irradiation (75%),[1]; [5],170%
same,relative proteasome activity level,[1]; [5],128%
same,proteasome activity compared to the sample not given any treatment,"[1]; FIG. 11, 10 μM",178%
same,proteasome activity compared to the sample not given any treatment under UV irradiation (73%),[1]; [6],121%
same,relative proteasome activity level,[1]; [6],88%
same,proteasome activity compared to the sample not given any treatment,"[1]; FIG. 12, silybin 3 μM, Bletilla striata extract 0.1%, soybean saponin 0.0005%, alone or combined",125%
same,cell toxicity,[2],does not occur
same,Relative photographic density (carbonylated protein),"[3]; Table 7, non-reduced protein, head printed UV (−), silybin 3 μM, Bletilla striata extract 0.1%, soybean saponin 0.0005%, alone or combined",300%
same,Relative photographic density (carbonylated protein),"[3]; Table 7, non-reduced protein, first column UV (−), silybin 3 μM, Bletilla striata extract 0.1%, soybean saponin 0.0005%, alone or combined",60%
same,amount of carbonylated protein compared to the sample not given any treatment under UV irradiation,"[3]; non-reduced protein, 3 μM",30%
same,amount of carbonylated protein compared to the sample not given any treatment under UV irradiation,"[3]; non-reduced protein, 10 μM",9%
same,amount of carbonylated protein compared to the sample not given any treatment under UV irradiation,"[3]; non-reduced protein, silybin 3 μM, Bletilla striata extract 0.1%, soybean saponin 0.0005%, alone or combined",60%
same,Relative photographic density (carbonylated protein),"[3]; non-reduced protein, treatment concentration 3 μM, UV (+)",95%
same,Relative photographic density (carbonylated protein),"[3]; non-reduced protein, treatment concentration 3 μM, UV (−)",55%
same,Relative photographic density (carbonylated protein),"[3]; non-reduced protein, treatment concentration 10 μM, UV (+)",30%
same,Relative photographic density (carbonylated protein),"[3]; non-reduced protein, treatment concentration 10 μM, UV (−)",8%
same,amount of carbonylated protein compared to the sample not given any treatment under UV irradiation,"[3]; reduced protein, 3 μM",25%
same,amount of carbonylated protein compared to the sample not given any treatment under UV irradiation,"[3]; reduced protein, 10 μM",10%
same,Relative photographic density (carbonylated protein),"[3]; reduced protein, treatment concentration 3 μM, UV (+)",85%
same,Relative photographic density (carbonylated protein),"[3]; reduced protein, treatment concentration 3 μM, UV (−)",50%
same,Relative photographic density (carbonylated protein),"[3]; reduced protein, treatment concentration 10 μM, UV (+)",35%
same,Relative photographic density (carbonylated protein),"[3]; reduced protein, treatment concentration 10 μM, UV (−)",5%
same,Relative photographic density (carbonylated protein),"[3]; reduced protein, treatment concentration 10 μM, UV (−), listed as silybin",10%
